This assay relates to CEM cells HIV-1 protection, formazan growth assay. Briefly: NCI AIDS Antiviral Assay. Particulars: for IC50: measured here: growth of uninfected CEM cells. The essentials:
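Human CEM cells, uninfected and HIV-1-infected, exposed to five drug concentrations; growth measured by soluble formazan assay and scored as percent protection from infection, with protecting compounds retested.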

74 compounds from PubChem BioAssay AID179 (DTP/NCI, 2004) can be followed below.

SMILES strings stand for the structures. Active and inactive are the calls of the source.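 Rule for the calls: active = compounds giving half or more protection of infected cells from virus-caused growth loss, again on retest; inactive = the rest.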 Where a SMILES comes first, the peptide text is derived from it. The star is where a group is joined. Boc = CC(C)(C)OC(=O)*; OSu = O=C1CCC(=O)N1O*

The term EC50 denotes the midpoint of the concentration-response curve. A word on the IC50: it is the concentration at which inhibition is half-maximal. A high value points to weaker potency. Regarding `CC(SCCCCCCCCCCSC(C)C(=O)O)C(=O)O` (stereo unspecified), the EC50 was over 141 µM and the 50% inhibitory concentration (IC50) is over 141 µM. For the compound `CSc1n[nH]c(N)c1C(=O)Nc1ccccc1`, the EC50 is over 186 µM and the IC50 is 117 µM. Consider `COc1cccc(C2=NC(C(C)C)CO2)c1OC` (stereo unspecified), for which the EC50 is over 525 µM and the IC50 turned out to be 316 µM.

On to `O=c1c2ccccc2nc(/C=C(\O)c2ccccc2)n1-c1ccccc1Cl`, for which the outcome was inactive. With `CC12C(=O)OCC1C1CCC2C1` (stereo unspecified), the EC50 is over 537 µM and the half-maximal inhibitory concentration (IC50) was over 537 µM.

Take `Oc1cc2c3c(c1)CCCN3CCC2`: the EC50 was over 200 µM and the IC50 worked out at 195 µM. For `CC1(C)Oc2ccccc2N2O[C@@H]3C(=O)N(c4ccccc4)C(=O)[C@@H]3C21c1ccccc1` (stereo partly specified), the result was inactive.

With `COc1ccc2c(ccc3nc(CCC(=O)O)n(C)c(=O)c32)c1`, the EC50 was over 794 µM and the IC50 stood at 229 µM. On the same counts, the results for `O=C(O)CC[n+]1ccccc1` are over 200 µM and over 200 µM. `COc1cc(/C=C2\CCC(C)c3c2nc(N)c(C#N)c3-c2cc(OC)c(OC)c(OC)c2)cc(OC)c1OC` (stereo unspecified): the result was inactive. Same read-out and setting: to `COc1ccc2[nH]c(=O)cc(C)c2c1[N+](=O)[O-]` belongs “inactive”; to `Cn1c(O)c(N=NC(=S)NC(=O)C23CC4CC(CC(C4)C2)C3)c2ccccc21`, “inactive”. With `Cc1occc1C(=S)Nc1ccc(Cl)c(C(=O)OC(C)C2CC2)c1` (stereo unspecified), the 50% effective concentration (EC50) is 0.0234 µM and the IC50 was found to be 47.9 µM. On the same counts, the results for `CCCC1C(C#N)(C#N)C(C#N)=C(N)C1(C)C(C)=O` (stereo unspecified) are over 200 µM and over 200 µM.

For `CC(=O)N/N=C/c1ccc(N(C)C)cc1`, the EC50 is over 200 µM and the concentration for half-maximal inhibition (IC50) is over 200 µM. Regarding `Oc1ccc(SCc2cc(O)ccc2O)cc1`, the EC50 was over 200 µM and the IC50 is 7.08 µM. For `CCOC(=O)C(C)NC(=O)C(C)NC(=O)C(C)NC(=O)C(C)NC(=O)C(C)NC(=O)OCc1ccccc1` (stereo unspecified) the same measures were over 200 µM and over 200 µM.

`Cc1ccc(S(=O)(=O)N/N=C(/CC(=O)c2c(C)n([O-])c3ccccc3[n+]2=O)C(=O)Nc2ccccc2C)cc1`: the EC50 is over 33.1 µM and the concentration for half-maximal inhibition (IC50) is over 33.1 µM. `O=c1c(O)c(-c2ccc(O)cc2O)oc2cc(O)cc(O)c12`: the outcome was inactive. Turning to `Cn1c(/C=C(\O)c2ccccc2)nc2ccccc21`, the EC50 was over 105 µM and the half-maximal inhibitory concentration (IC50) stood at 83.2 µM. Take `COc1cc(Nc2cnc3cc(C(F)(F)F)ccc3n2)cc(OC)c1OC`: the EC50 was over 50.1 µM and the 50% inhibitory concentration (IC50) was over 50.1 µM.

Turning to `CCOc1ccc(-n2nnc3c(N)nc(N)nc32)cc1`, the EC50 was over 200 µM and the IC50 is over 200 µM. `CC(=O)O[C@H]1C#C/C=C\C#CC[C@@H]2C(=O)N(C(=O)OC(C)(C)C)[C@@H]12`: the EC50 is over 20 µM and the half-inhibitory concentration (IC50) was 1.12 µM. As for `O=c1cc(-c2ccc(O)c(O)c2)oc2cc(OC3OC(CO)C(O)C(O)C3O)cc(O)c12` (stereo unspecified), the EC50 was over 200 µM and the concentration for half-maximal inhibition (IC50) was 15.5 µM. For `CC(=O)OC1CC2(c3ccccc3)C(=O)c3ccccc3N2O1` (stereo unspecified) the same measures were over 115 µM and over 115 µM. With `N#Cc1nn(C2OC(COC(=O)c3ccccc3)C(OC(=O)c3ccccc3)C2OC(=O)c2ccccc2)c2nc[nH]c(=O)c12` (stereo unspecified), the EC50 was over 200 µM and the IC50 turned out to be 74.1 µM. For `Cn1nc(C(N)=O)c(=O)[nH]c1=O` the same measures were over 200 µM and over 200 µM.

As for `COc1nn(Cc2ccccn2)c2ccc([N+](=O)[O-])cc12`, the EC50 was over 200 µM and the IC50 came out at 135 µM. For `O=C(/C=C/c1ccc(O)cc1)CC(=O)/C=C/c1ccc(O)cc1` the same measures were over 200 µM and 9.55 µM.

As for `S=c1sscc1-c1ccccc1`, the EC50 was over 200 µM and the half-maximal inhibitory concentration (IC50) is 186 µM. On the same counts, the results for `N#CCCN(CCC#N)c1ccc(/C=C2\N=C(c3ccccc3)N(c3ccccc3)C2=O)cc1` are over 200 µM and 7.76 µM. On the same counts, the results for `Clc1ccc(CCc2ccncn2)c(Cl)c1` are over 398 µM and 38 µM. As for `Cc1ccc(C)n1N1CC(C)N(N=O)CC1C` (stereo unspecified), the EC50 was over 200 µM and the IC50 is over 200 µM. For the compound `CC(=O)N1C(C(=O)NN2CCOCC2)CSC1c1ccccc1` (stereo unspecified), the EC50 is over 200 µM and the IC50 was over 200 µM. As for `Cc1ccccc1NC(=O)C1C(=O)N(c2ccccc2C)C(=O)/C1=N\NC(N)=O` (stereo unspecified), the EC50 is over 13.2 µM and the IC50 is over 13.2 µM. For the compound `O=C(Nc1ccccc1)OCc1nc2c([nH]1)C(=O)C=CC2=O`, the outcome was inactive. In the case of `COC1C(OC(=O)/C=C/C=C/C=C/C=C\C(=O)O)CCC2(CO2)C1C1(C)OC1CC=C(C)C` (stereo unspecified), the half-maximal effective concentration (EC50) was 49 µM and the IC50 was over 200 µM. On the same counts, the results for `Cc1cc2c3c(nc2c2cc[nH]c(C)c12)CCCC3` are over 200 µM and 3.63 µM. For `CO[C@@]12[C@@H]3N[C@@H]3CN1C1=C(C(=O)C(N(C)c3ccc(O)cc3)=C(C)C1=O)[C@@H]2COC(N)=O` the same measures were over 200 µM and 1.35 µM.

For `CCOC(=N)COC(=O)c1ccccc1`, the EC50 was over 200 µM and the half-maximal inhibitory concentration (IC50) was over 200 µM. `CNC(=O)NCCN1N=C(C)/C(=C\c2ccccc2)CC1=O`: the outcome was inactive. For the compound `COc1cc(C)c(/C=C/C(=O)N2C(=O)OC[C@@H]2c2ccccc2)c(C)c1`, the EC50 was over 200 µM and the IC50 was 26.9 µM.

For the compound `CC1(C)OC(=O)C(c2cccs2)C(=O)O1`, the EC50 was over 44.7 µM and the IC50 is over 44.7 µM. In the case of `O/N=C1\CN2CCC1CC2`, the outcome was inactive. For `O=c1oc(-c2ccccc2Br)ns1`, the EC50 is over 100 µM and the half-inhibitory concentration (IC50) stood at 52.5 µM. On the same counts, the results for `COc1cc(N=Nc2ccc(N=Nc3cc(NC(C)=O)c(N=Nc4ccc(S(=O)(=O)O)cc4)cc3S(=O)(=O)O)c(C)c2)c(C)cc1NC(=O)c1ccc(N)cc1` are 3.55 µM and 102 µM.

On to `C=CCn1c(=O)c(C(=O)NC(=O)OCC)cn(C2CCCCC2)c1=O`, for which the EC50 is over 145 µM and the IC50 is over 145 µM. On to `O=C(CC(=O)N(C(=O)c1ccccc1)c1ccc(Cl)cc1)N/N=C\c1cc(N=Nc2ccccc2Cl)ccc1O`, for which the EC50 was over 100 µM and the IC50 was over 100 µM. As for `CCCCCC=C(c1cc(Cl)c(OC)c(-c2nc(C)no2)c1)c1cc(Cl)c(OC)c(-c2nc(C)no2)c1`, the EC50 is over 200 µM and the half-maximal inhibitory concentration (IC50) turned out to be 10.2 µM. As for `CCCCCCCC(=O)NCC(O)CNC(=O)CCCCCCC`, the outcome was inactive. On to `O=C1Nc2ccccc2N=CC1NC(=O)C(c1ccccc1)c1ccccc1` (stereo unspecified), for which the EC50 is over 257 µM and the IC50 is 224 µM. For `COc1ccc(-c2ccc(CC(=O)O)cc2)cc1OC` the same measures were over 36.3 µM and over 36.3 µM.

With `O=c1onc2c3ccccc3ncn12`, the EC50 was over 200 µM and the IC50 was over 200 µM. As for `Nc1c(S(=O)(=O)O)cc2cc(S(=O)(=O)O)ccc2c1N=Nc1ccc(S(=O)(=O)c2ccc(N=Nc3c(N)c(S(=O)(=O)O)cc4cc(S(=O)(=O)O)ccc34)cc2)cc1`, the EC50 was over 64.6 µM and the 50% inhibitory concentration (IC50) is over 64.6 µM. With `ON=C(C1CC1)C1CC1`, the EC50 was over 200 µM and the IC50 was over 200 µM. For `O=C(NNc1nc2cccnc2n2ccnc12)c1cnccn1`, the EC50 was over 1 µM and the half-maximal inhibitory concentration (IC50) turned out to be 0.135 µM. For `COc1ccc(C2C3=C(COC3=O)OC(C)(C)Oc3cc4c(cc32)OCO4)cc1` (stereo unspecified) the same measures were over 200 µM and 13.8 µM. For `Cc1cc(Cl)ccc1NC(=O)C(=O)Cc1occc(=O)c1O` the same measures were over 295 µM and over 295 µM. For `Cc1cc2c(c(C(=O)NCC(=O)N[C@@H](C)C(=O)OCc3ccccc3)c1)Oc1c(cc(C)cc1C(=O)NCC(=O)N[C@@H](C)C(=O)OCc1ccccc1)S2` the same measures were over 200 µM and 7.76 µM. `Cc1oc2ccccc2c(=O)c1C`: the outcome was inactive. For `O=c1[nH]c(=O)n(C2CC(O)C(CO)O2)cc1C#Cc1ccc(F)cc1` (stereo unspecified), the EC50 is over 724 µM and the IC50 is over 724 µM. As for `OCC1=CC(NC2CC(CO)C(O)C(O)C2O)C(O)C(O)C1O` (stereo unspecified), the outcome was inactive. Regarding `O=[N+]([O-])c1cccc(S(=O)(=O)N2CCCC2)c1`, the EC50 was over 200 µM and the half-inhibitory concentration (IC50) worked out at 166 µM. On the same counts, the results for `CC(NC(=O)C(NC(=O)OC(C)(C)C)C(C)C)C(=O)NCC(=O)ON1C(=O)CCC1=O` (stereo not drawn) (Boc-Val-Ala-Gly-OSu; configuration not given here) are over 200 µM and 117 µM. Take `C=CC1(C)CCC2C(=CCC3C(C)(COC4OC(CO)C(O)C(O)C4O)C(O)CCC23C)C1` (stereo unspecified): the EC50 is over 200 µM and the IC50 is over 100 µM.

With `CCN(CC)CC(=O)N(CC)c1ccc(C)c(Cl)c1`, the EC50 is over 200 µM and the concentration for half-maximal inhibition (IC50) is over 200 µM. Consider `CC(C)=CCC[C@@H](C)C1=C(Nc2ccccc2F)C(O)=C(C)C(=O)C1=O`, for which the EC50 was over 200 µM and the 50% inhibitory concentration (IC50) is 2.14 µM.

As for `COc1c(OCC(O)CN2CCCCC2)c2c(C)coc2c2ccoc12` (stereo unspecified), the EC50 was over 631 µM and the concentration for half-maximal inhibition (IC50) came to 35.5 µM. Turning to `CC(C)c1cc(C(C)C)c(S(=O)(=O)N/N=C2\CC3CCC2(C)C3(C)C)c(C(C)C)c1` (stereo unspecified), the EC50 was over 200 µM and the IC50 turned out to be 18.6 µM. On the same counts, the results for `O=C(O)CNC(=O)c1ccccc1SC(=O)CCCC[n+]1ccccc1` are over 200 µM and over 200 µM. For `CCOC(=O)C(C#N)C(C)CC` (stereo unspecified) the same measures were over 200 µM and over 200 µM. For `O=C1C2=Cc3ccccc3OC2(O)Oc2cc3ccccc3cc21` (stereo unspecified), the EC50 was over 200 µM and the IC50 was found to be 69.2 µM. For `C=CS(=O)(=O)CCN1CC1` the same measures were over 200 µM and over 200 µM. For `Cc1ncc([N+](=O)[O-])n1CC(O)CCl` (stereo unspecified) the same measures were over 200 µM and over 200 µM.
